In the RepoRT retention time repository (doi:10.1016/j.chroma.2015.11.014):

Experiment: RP, Agilent ZORBAX Eclipse Plus C18, 150 × 2.1 mm, 3.5 µm, 40 °C, 0.3 mL/min, estimated dead time 1.1 min; A: water + 0.1% formic acid; B: acetonitrile + 0.1% formic acid; gradient (min/%B) 0/2 1/2 2/20 16.5/98 22/98
Settings: stereoisomer not certain
For `COc1ccc2c(c1)CCC1C2CCC2(C)C(=O)CCC12` (stereo not drawn), the LC retention time was 10.5 min.
In the case of `COc1cc(Cc2cnc(N)nc2N)cc(OC)c1O`, the LC retention time is reported as 4.78 min.
With `CC(C)NCC(O)COc1ccc(CCOCC2CC2)cc1` (stereo not drawn) the LC retention time was 7.06 min.
With `Nc1ncnc2c1ncn2C1CC(O)C(COP(=O)(O)O)O1` (stereo not drawn) the LC retention time was 2.17 min.
In the case of `CCCCCCCCCCCCCCCCN1C=CC=CC1`, the LC retention time is reported as 13 min.
Work on `COc1cc(C(=O)O)cc(OC)c1OC` yielded an LC retention time of 7.63 min.
Compound `CC(=O)Nc1ccc(O)c(O)c1` has an LC retention time of 4.47 min.
Work on `CCCC(=O)Nc1ccc(OCC(O)CNC(C)C)c(C(C)=O)c1` (stereo not drawn) yielded an LC retention time of 5.96 min.
`COc1ccc(CCN(C)CCCC(C#N)(c2ccc(OC)c(OC)c2)C(C)C)cc1OC` (stereo not drawn) showed an LC retention time of 8.54 min.
Compound `CCC1OC(=O)C(C)C(OC2CC(C)(OC)C(O)C(C)O2)C(C)C(OC2OC(C)CC(N(C)C)C2O)C(C)(O)CC(C)CN(C)C(C)C(O)C1(C)O` (stereo not drawn) has an LC retention time of 6.25 min.
Compound `CC(C)NCC(O)COc1ccc(C(O)C(N)=O)cc1` (stereo not drawn) has an LC retention time of 3.21 min.
Work on `COc1cc(C(=O)c2cnc(N)nc2N)cc(OC)c1OC` yielded an LC retention time of 5.86 min.
For `C#CC[P+](c1ccccc1)(c1ccccc1)c1ccccc1`, the LC retention time was 7.93 min.
In the case of `Cc1cc(NS(=O)(=O)c2ccc(N)cc2)no1`, the LC retention time is reported as 7.25 min.
In the case of `O=[N+]([O-])c1ccc(O)c([N+](=O)[O-])c1`, the LC retention time is reported as 9.21 min.
`O=C(O)c1cc(O)c2c(c1)C(=O)c1cccc(O)c1C2=O` gave an LC retention time of 10.8 min.
`CSCC1OC(n2cnc3c(N)ncnc32)C(O)C1O` (stereo not drawn) gave an LC retention time of 4.79 min.
For `O=C1NC(=O)C(c2ccccc2)(c2ccccc2)N1`, the LC retention time was 9.18 min.
Work on `CC(=O)Nc1ccc(C(=O)O)cc1` yielded an LC retention time of 5.59 min.
With `CNC(=O)ON=C(C)C(C)SC` (stereo not drawn) the LC retention time was 7.75 min.
In the case of `CN(Cc1cnc2nc(N)nc(N)c2n1)c1ccc(C(=O)NC(CCC(=O)O)C(=O)O)cc1` (stereo not drawn), the LC retention time is reported as 4.98 min.
With `CCCCCCCC[N+](CCCCCCCC)(CCCCCCCC)CCCCCCCC` the LC retention time was 16.2 min.
In the case of `NCCc1c[nH]c2ccccc12`, the LC retention time is reported as 4.97 min.
In the case of `CC(=C(CCO)SSC(CCO)=C(C)N(C=O)Cc1cnc(C)nc1N)N(C=O)Cc1cnc(C)nc1N`, the LC retention time is reported as 4.48 min.
Compound `c1ccc(C2=NCCN2)cc1` has an LC retention time of 4.35 min.
With `CNC(=O)Oc1cccc2ccccc12` the LC retention time was 10.1 min.
For `CCCCCCCCCCCCCC[N+](C)(C)Cc1ccccc1`, the LC retention time was 12.8 min.
`CCOc1cc(CC(=O)NC(CC(C)C)c2ccccc2N2CCCCC2)ccc1C(=O)O` (stereo not drawn) showed an LC retention time of 10.3 min.
`CC(=O)Nc1cc(NC(C)=O)cc(C(=O)O)c1` showed an LC retention time of 5.22 min.
Work on `COC(=O)CCCC[P+](c1ccccc1)(c1ccccc1)c1ccccc1` yielded an LC retention time of 8.3 min.
Work on `c1ccc2n[nH]nc2c1` yielded an LC retention time of 5.88 min.
In the case of `Nc1ccc(O)c([N+](=O)[O-])c1`, the LC retention time is reported as 4.69 min.
In the case of `CCOc1ccccc1NC(=O)C(=O)Nc1ccccc1CC`, the LC retention time is reported as 15.4 min.
With `C=C(C)C([O-])=NCCC[N+](C)(C)C` the LC retention time was 4.7 min.
In the case of `CN1CCN2c3ncccc3Cc3ccccc3C2C1` (stereo not drawn), the LC retention time is reported as 5.46 min.
In the case of `CCNCC(=O)Nc1c(C)cccc1C`, the LC retention time is reported as 5.35 min.
In the case of `Cc1c(NC=O)c(=O)n(-c2ccccc2)n1C`, the LC retention time is reported as 5.62 min.
In the case of `O=C(O)c1cccc2c(=O)c3ccccc3[nH]c12`, the LC retention time is reported as 8.82 min.
With `CCOC(=O)c1ccc(O)cc1` the LC retention time was 8.83 min.
For `CNC(=O)N(C)c1nc2ccccc2s1`, the LC retention time was 9.78 min.
With `CCOC(=O)C(C#N)=C(c1ccccc1)c1ccccc1` the LC retention time was 13.6 min.
Work on `Oc1ccc(O)cc1` yielded an LC retention time of 3.67 min.
`CNC(=C[N+](=O)[O-])NCCS(=O)Cc1ccc(CN(C)C)o1` (stereo not drawn) gave an LC retention time of 2.94 min.
For `O=C(O)CC1(C(=O)O)CCCCC1`, the LC retention time was 7.49 min.
With `CCOc1ccc2ccccc2c1C(=O)NC1C(=O)N2C1SC(C)(C)C2C(=O)O` (stereo not drawn) the LC retention time was 10.6 min.
For `O=C(NCc1ccccc1)NC1CCCCC1`, the LC retention time was 10.3 min.
With `CC12CCC3c4cc(O)c(O)cc4CCC3C1CCC2=O` (stereo not drawn) the LC retention time was 9.98 min.
Work on `O=P(O)(OCc1ccccc1)OCc1ccccc1` yielded an LC retention time of 9.05 min.
Compound `CC(Cn1cnc2c(N)ncnc21)OCP(=O)(O)O` (stereo not drawn) has an LC retention time of 2.77 min.
`CC(NC(CCc1ccccc1)C(=O)O)C(=O)C1CCCN1C(=O)O` (stereo not drawn) showed an LC retention time of 5.84 min.
With `CCP(=O)(c1ccccc1)c1ccccc1` the LC retention time was 8.82 min.
In the case of `CCN1CCN(C(=O)NC(C(=O)NC2C(=O)N3C(C(=O)O)=C(CSc4nnnn4C)CSC23)c2ccc(O)cc2)C(=O)C1=O` (stereo not drawn), the LC retention time is reported as 6.86 min.
In the case of `Nc1nc2c(ncn2C2CC(O)C(CO)O2)c(=O)[nH]1` (stereo not drawn), the LC retention time is reported as 4.09 min.
Compound `Cc1cc2nc3[nH]c(=O)[nH]c(=O)c3nc2cc1C` has an LC retention time of 7.07 min.
With `CNCC(c1ccc(O)cc1)C1(O)CCCCC1` (stereo not drawn) the LC retention time was 5.66 min.
`COP(=O)(OC)OC` gave an LC retention time of 4.97 min.
In the case of `Cc1cc(C(C)(C)C)c(O)c(C)c1CC1=NCCN1`, the LC retention time is reported as 7.43 min.
`CCOC(=O)Nc1ccc(N)cc1` showed an LC retention time of 4.86 min.
For `CCCC[N+]1(C)CCCC1`, the LC retention time was 4.27 min.
With `O=c1[nH]c(=O)c2ncn(C3OC(CO)C(O)C3O)c2[nH]1` (stereo not drawn) the LC retention time was 4.35 min.
In the case of `CCCC[N+]1(C)CCCCC1`, the LC retention time is reported as 4.66 min.
`CCCCCCCCCCCCOC(=O)c1cc(O)c(O)c(O)c1` gave an LC retention time of 16 min.
`Nc1ccc(C(=O)O)c(O)c1` gave an LC retention time of 5.48 min.
`CC(C)(C(=O)O)c1ccc(C(O)CCCN2CCC(C(O)(c3ccccc3)c3ccccc3)CC2)cc1` (stereo not drawn) gave an LC retention time of 8.7 min.
`O=P(O)(Oc1ccccc1)Oc1ccccc1` showed an LC retention time of 8.14 min.
For `C#CC1(O)CCC2C3CCC4=C(CCC(=O)C4)C3CCC21C` (stereo not drawn), the LC retention time was 11.1 min.
In the case of `COc1ccc(C(CN(C)C)C2(O)CCCCC2)cc1` (stereo not drawn), the LC retention time is reported as 6.63 min.
Work on `CCCCC[N+](CCCC)(CCCC)CCCC` yielded an LC retention time of 9.57 min.
In the case of `CCC(CC)OC1C=C(C(=O)O)CC(N)C1NC(C)=O` (stereo not drawn), the LC retention time is reported as 5.65 min.
`O=C1CC2(CCCCC2)CN1` showed an LC retention time of 7.59 min.
`C[N+](C)(C)Cc1ccccc1` gave an LC retention time of 4.46 min.
With `CCCCCCCC[N+](C)(C)Cc1ccccc1` the LC retention time was 9.03 min.
With `OCCN1CCN(CCCN2c3ccccc3C=Cc3ccccc32)CC1` the LC retention time was 7.24 min.
`O=c1[nH]c(=S)c2[nH]cnc2[nH]1` showed an LC retention time of 4.02 min.
With `NC(=O)N1c2ccccc2CC(=O)c2ccccc21` the LC retention time was 8.32 min.
In the case of `COCC(=O)N(c1c(C)cccc1C)C(C)C(=O)OC` (stereo not drawn), the LC retention time is reported as 10.2 min.
With `Cn1c(N)nc2nc[nH]c2c1=O` the LC retention time was 2.34 min.
`CN(C)CCC=C1c2ccccc2COc2ccccc21` showed an LC retention time of 7.45 min.
Compound `Cc1c(N)c(=O)n(-c2ccccc2)n1C` has an LC retention time of 4.78 min.
Compound `O=P(Oc1ccccc1)(Oc1ccccc1)Oc1cccc(OP(=O)(Oc2ccccc2)Oc2ccccc2)c1` has an LC retention time of 15.9 min.
Compound `CCN1CCCC1CNC(=O)c1cc(S(N)(=O)=O)ccc1OC` (stereo not drawn) has an LC retention time of 4.96 min.
With `CC(C(=O)O)c1cccc(Oc2ccccc2)c1` (stereo not drawn) the LC retention time was 11.8 min.
Compound `COc1ccc(-c2coc3cc(O)ccc3c2=O)cc1` has an LC retention time of 10.1 min.
`CCCCCCC[N+](CCCCCCC)(CCCCCCC)CCCCCCC` showed an LC retention time of 14.7 min.
`CCOc1ccc(NC(C)=O)cc1` gave an LC retention time of 7.62 min.
In the case of `COc1ccc(Cc2cnc(N)nc2N)cc1OC`, the LC retention time is reported as 4.97 min.
For `CC(=O)OCCCC[P+](c1ccccc1)(c1ccccc1)c1ccccc1`, the LC retention time was 8.85 min.
In the case of `CNCC(c1ccc(OC)cc1)C1(O)CCCCC1` (stereo not drawn), the LC retention time is reported as 6.44 min.
Compound `COC(=O)Nc1nc2ccccc2[nH]1` has an LC retention time of 5.08 min.
Work on `CCOC(=O)Nc1cccc(N)c1C` yielded an LC retention time of 5.08 min.
Compound `CC(C)NCC(O)COc1cccc2[nH]c3ccccc3c12` (stereo not drawn) has an LC retention time of 6.88 min.
Work on `Cn1c(=O)c2ncn(C)c2n(C)c1=O` yielded an LC retention time of 4.73 min.
For `COc1ccccc1-c1nc2ccccc2[nH]1`, the LC retention time was 6.22 min.
`CCCSc1ccc2nc(NC(=O)OC)[nH]c2c1` gave an LC retention time of 8.55 min.
Compound `Cc1ccc(C(C)NC(=O)C(NC(=O)OC(C)C)C(C)C)cc1` (stereo not drawn) has an LC retention time of 11.9 min.
Compound `c1ccc2scnc2c1` has an LC retention time of 8.78 min.
In the case of `CCOC(=O)c1ccc(O)c([N+](=O)[O-])c1`, the LC retention time is reported as 10.7 min.
With `CN(CC=CC#CC(C)(C)C)Cc1cccc2ccccc12` the LC retention time was 9.65 min.
Compound `O=C(NC1CCCCC1)N(Cc1ccccc1)Cc1ccccc1` has an LC retention time of 14.1 min.
`CC12C=CC(=O)C=C1CCC1C2C(=O)CC2(C)C1CCC2(O)C(=O)CO` (stereo not drawn) gave an LC retention time of 8.47 min.
Work on `CC(C)(c1ccc(O)c([N+](=O)[O-])c1)c1ccc(O)c([N+](=O)[O-])c1` yielded an LC retention time of 13.8 min.
In the case of `O=P(O)(O)Cc1ccccc1`, the LC retention time is reported as 5.04 min.
In the case of `COC(=O)Nc1ccccc1`, the LC retention time is reported as 8.47 min.
With `CCC(C)C(=O)OC1CC(O)C=C2C=CC(C)C(CCC(O)CC(O)CC(=O)O)C21` (stereo not drawn) the LC retention time was 8.64 min.
In the case of `CC(C)(C(=O)O)c1ccc(C(=O)CCCN2CCC(OC(c3ccccc3)c3ccccc3)CC2)cc1`, the LC retention time is reported as 10 min.
Work on `CC(C)c1nc(CN(C)C(=O)NC(C(=O)NC(Cc2ccccc2)CC(O)C(Cc2ccccc2)NC(=O)OCc2cncs2)C(C)C)cs1` (stereo not drawn) yielded an LC retention time of 12.7 min.
With `CCOC(=O)Nc1ccc(C)c(NC(=O)OCC)c1` the LC retention time was 10.1 min.
`NC(=O)N1c2ccccc2C2OC2c2ccccc21` (stereo not drawn) showed an LC retention time of 7.59 min.
`CCNc1nc(N)[nH]c(=O)n1` showed an LC retention time of 2.31 min.
With `CN(C)c1ccc(-c2nc3ccccc3[nH]2)cc1` the LC retention time was 6.52 min.
`CC(C)NCC(O)COc1cccc2[nH]ccc12` (stereo not drawn) showed an LC retention time of 5.15 min.
In the case of `c1ccc(Nc2ccc(Nc3ccccc3)cc2)cc1`, the LC retention time is reported as 14.5 min.
Compound `CC(C)(C)[P+](=O)C(C)(C)C` has an LC retention time of 7.1 min.
`CCC(CC)Nc1c([N+](=O)[O-])cc(C)c(C)c1[N+](=O)[O-]` gave an LC retention time of 16.2 min.
With `CC1(C)CCCC(C)(C)N1O` the LC retention time was 10.4 min.
Compound `CNCC(O)c1cccc(O)c1` (stereo not drawn) has an LC retention time of 2.73 min.
Compound `CCOCCOC(=O)Nc1ccc(C)cc1` has an LC retention time of 10.8 min.
`COC(=O)C(Cc1ccccc1)NC(=O)C(N)CC(=O)O` (stereo not drawn) gave an LC retention time of 5.76 min.
